Experimental data reported in patent publication US20180161295A1, “TREATMENT OF CLOSED HEAD INJURY AND HEMORRHAGIC STROKE WITH HBED” (University of Florida Research Foundation, Incorporated, priority 2014, published 2018).
Entries after “also recorded” stand apart in the source; their conditions may differ.

How the values were obtained:
iron-loaded beagle dogs = assay: 28-day intravenous repeat dose toxicity study, iron-loaded dogs; format: in vivo
Description: (§1) 28-Day Intravenous Repeat Dose Toxicity Study of NaHBED in Male and Female Dogs SRI Study.
(§2) Male and female beagle dogs were either infused biweekly with iron dextran to a level of approximately 500 mg iron/kg body weight or held without iron loading during the 2-month pretreatment phase. All dogs were held an additional 2 ½ months before beginning dose administration with N,N′-di(2-hydroxybenzypethylenediarnine-N,N′-diacetic acid, monosodium salt (NaHBED). Groups of 4 male and 4 female dogs that had been iron-loaded received NaHBED at 21.46, 64.38, or 128.76 mg/kg daily in 15-35 min intravenous (i.v.) infusions for 28 consecutive days; a non-iron-loaded group containing the same number of dogs of each sex received 21.46 mg NaHBED/kg/day i.v. during the same period. Vehicle-only control groups of iron-loaded and non-iron-loaded dogs (3 males and 3 females per group) were subjected to the same regimen concurrently. […] During the treatment period, clinical observations on the animals were made daily after dosing. Body weights were measured before the start of dosing with NaHBED, weekly during the 28-day treatment period, and at study termination when recovery animals were sacrificed; food consumption was measured weekly during the treatment period. Hematology and clinical chemistry parameters, including serum iron parameters, were assessed at Weeks-1, 2, 4, and 8. Urinalysis was performed on bladder urine samples at necropsy. Plasma samples were collected for drug level analysis at selected timepoints after dosing on the first day and 28 days later. Routine ophthalmologic examinations and cardiovascular evaluations were conducted during the week prior to dose administration and during the third and fourth (eye exams) or fourth (cardiology exams) weeks of NaHBED administration. Organ weights were measured at necropsy and organ-to-body and -brain ratios determined. Gross and microscopic examination of a complete set of tissues was performed on iron-loaded high dose (128.76 mg/kg/day) and control groups and on non-iron-loaded low dose (21.46 mg/kg/day) and control groups. Specimens from liver, heart, spleen, lung, kidney, and eye were taken from each dog at necropsy for subsequent tissue analyses of iron and zinc content.

[1] = Toxicokinetics (plasma drug level analysis) in the 28-day i.v. dog study; format: in vivo, beagle dogs
Description: Male and female beagle dogs were either infused biweekly with iron dextran to a level of approximately 500 mg iron/kg body weight or held without iron loading during the 2-month pretreatment phase. […] During the treatment period, clinical observations on the animals were made daily after dosing. Body weights were measured before the start of dosing with NaHBED, weekly during the 28-day treatment period, and at study termination when recovery animals were sacrificed; food consumption was measured weekly during the treatment period. Hematology and clinical chemistry parameters, including serum iron parameters, were assessed at Weeks-1, 2, 4, and 8. Urinalysis was performed on bladder urine samples at necropsy. Plasma samples were collected for drug level analysis at selected timepoints after dosing on the first day and 28 days later. Routine ophthalmologic examinations and cardiovascular evaluations were conducted during the week prior to dose administration and during the third and fourth (eye exams) or fourth (cardiology exams) weeks of NaHBED administration. Organ weights were measured at necropsy and organ-to-body and -brain ratios determined. […] Specimens from liver, heart, spleen, lung, kidney, and eye were taken from each dog at necropsy for subsequent tissue analyses of iron and zinc content.

mTBI animals = assay: Lower limb spasticity (velocity dependent ankle torque and triceps EMG) after weight drop closed head injury (mTBI); format: in vivo, rats; conditions: 50 mg/kg s.c. 2x per day for 2 weeks, PO Wk-1 and PO Wk-3
Description: Ankle torque, displacement and EMGs are simultaneously recorded and time-locked to onset of dorsiflexion. Velocity dependent ankle torque was tested between 49 and 612 degrees/sec dorsiflexion in awake rats.
These experiments were performed to assess the influence of treatment using NaHBED following mTBI. Fifteen mTBIs were performed as described above, using 450×1.25m weight drop closed head injury. The animals were randomly divided into two groups, control (n=5) and iron chelator (IC) NaHBED treatment (n=10). Beginning on the first day following injury, NaHBED was delivered by subcutaneous injection of 50 mg/kg, 2× per day, for a total dosage of 100 mg/kg/body weight/day. NaHBED 60 mg/ml, was dissolved in deionized, sterilized, iron-free water. The IC was administered every day for 2 weeks. The control animals received equal volume subcutaneous injections of saline.
Spasticity: The influence of treatment was tested by analysis of lower limb spasticity (velocity dependent ankle torque and triceps EMG), in mTBI treated and non-treated mTBI animals. A normal ICT group (Normal HBED) was also included as a treatment control.

[2] = tested on: non-iron-loaded beagle dogs; assay: 28-day intravenous repeat dose toxicity study, non-iron-loaded (normal) dogs; format: in vivo
Description: as §1, §2

[3] = repeated daily i.v. doses, iron-loaded beagle dogs, 28 days
[4] = non-iron-loaded dogs, 21.46 mg/kg/day i.v., at necropsy
[5] = non-iron-loaded dogs, 21.46 mg/kg/day i.v., statistically significant for males on Day 15

Structure (SMILES): O=C([O-])CN(CCN(CC(=O)O)Cc1ccccc1O)Cc1ccccc1O.[Na+] [NaHBED]
- histopathologic findings clearly associated with administration (iron-loaded beagle dogs; daily i.v. for 28 days): no histopathologic findings
- effects on body weight and food consumption; ophthalmologic, cardiovascular, hematology, clinical chemistry and urinalysis parameters; organ weights or weight ratios (iron-loaded beagle dogs; iron-loaded dogs, daily i.v. for 28 days): no distinguishable effects
- observable adverse effects (iron-loaded beagle dogs; iron-loaded dogs, high dose level (128.76 mg/kg/day i.v., 28 days)): emesis and/or diarrhea
- mean kidney iron content (iron-loaded beagle dogs; iron-loaded male groups, at necropsy): statistically lower
- kidney zinc content (iron-loaded beagle dogs; iron-loaded, high dose level group, at necropsy): statistically lower
- urine coloration (iron-loaded beagle dogs; majority of dogs at all dose levels, most of the treatment period): Reddish urine
- maximum tolerated dose (MTD) level (iron-loaded beagle dogs; [3]): > 128.76 mg/kg/day
- no observable adverse effect level (NOAEL) (iron-loaded beagle dogs; [3]): 64.38 mg/kg/day
- total body clearance, Day 28 relative to Day 1 ([1]; daily i.v., Day 28 vs Day 1): correspondingly elevated
- volume of distribution, Day 28 relative to Day 1 ([1]; daily i.v., Day 28 vs Day 1): correspondingly elevated
- toxicokinetic parameters, iron-loaded versus non-iron-loaded dogs ([1]; same dose level): similar
- amplitudes of time locked EMGs (mTBI animals): significantly lower
- amplitudes of velocity dependent ankle torques (mTBI animals): significantly lower
- mobilization and excretion of iron and zinc ([2]; non-iron-loaded dogs, 21.46 mg/kg/day dose level, monosodium salt, 21.46 mg/kg/day): induced mobilization and enhanced excretion; also recorded: clear indication
- other effects ([2]; non-iron-loaded dogs, 21.46 mg/kg/day i.v., 28 days): No other effects
- iron content of kidneys [2, 4]: dramatic decrease
- zinc content of kidneys [2, 4]: dramatic decrease
- urine coloration ([2]; non-iron-loaded dogs, 21.46 mg/kg/day i.v., occasionally): slightly red coloration
- iron-to-transferrin ratio [2, 5]: apparent elevation
- serum iron [2, 5]: apparent elevation
- iron and zinc in kidneys, females ([2]; non-iron-loaded female dogs, 21.46 mg/kg/day i.v., at necropsy): virtual absence of either ion
